The results in this text go back to patent US20190276475A1, “CRYSTAL AND SALT OF NITROIMIDAZOLE, AND MANUFACTURING METHOD THEREOF” (priority 2016, published 2019).

Data set [1] is described as follows: physchem. Conditions: 22 °C, pH 2, aqueous buffer, kinetic from dmso stock.
Procedure: The test compound and the control compound (10 mM DMSO mother liquor, 10 μL per well) were added to a 96-well plate containing 490 μL buffer per well. After 2 minutes of vortexing, the sample plate were incubated for 24 hours at room temperature (22±2° C.) on a shaker. 200 μL sample was then transferred to a Multi Screen filter plate (polycarbonate membrane), filtered through a millipore vacuum manifold and the filtrate was collected. The concentration of the compound in the filtrate was determined by HPLC-UV. Three UV standard solution of different concentrations and the solubility test sample were injected successively. Each sample was inserted twice, and the concentration was calculated by standard curve line and averaged.
Data set [2] is described as follows: Stability test in different solvents for the crystal form A. Conditions: stirred at 40° C. for 2 days.
Procedure: The mixture was stirred at 40° C. for 2 days, and then centrifuged. The solid in all samples was collected, dried in a vacuum oven (40° C.) overnight, and was tested for crystal form by XRPD.
Data set [3] in a line: Solid stability test under high temperature and high humidity conditions.
Source text: The samples placed under different conditions were sampled and tested on the 5th day and 10th day, and the test results were compared with the initial test results of 0 days.
The nature of data set [4]: physchem. Conditions: thermodynamic from solid, Solubility (mg/mL).
Procedure: The solubility test was carried out by using a manual stepwise dilution method under normal temperature conditions while observing the dissolution. About 2 mg of the crystal form C of the compound represented by formula (I) was added into different vials used in the liquid phase, and then an organic solvent or solvent mixture was added in small portions to observe the dissolution of the compound.
In data set [5] the test system is Mycobacterium tuberculosis Erdman, ATCC 35801. Kind of data set: In vivo efficacy in mouse model of chronic infection. The conditions noted are these: mice, whole lung, day 32 to 59 after infection, counted day 60.
The test system of data set [6] is M. bovis ATCC35737. In kind it is cell-based.
Data set [7] relates to M. tuberculosis H37Rv. Kind of data set: In vitro MIC against M. tuberculosis H37Rv, MABA. It is filed as cell-based.
Data set [8] relates to M. tuberculosis H37R. Nature of the data set: In vitro MIC against M. tuberculosis H37Rv, LORA. It is filed as cell-based. Conditions: Mycobacterium tuberculosis, read-out: M. tuberculosis H37R LORA (MIC) (μg/mL).
Data set [9] relates to MDR1-MDCK cells. Kind of data set: Bidirectional permeability in MDR1-MDCK cells. In kind it is in vitro ADME. Conditions: conclusion.
Procedure: MDR1-MDCK cells permanently expressing human P-glycoprotein were inoculated in a 96-well Insert cell plate and cultured for 4-7 days to form convergent monolayer cells.
After the incubation, the sample solutions in the donor wells and receiver wells were immediately mixed with cold acetonitrile solution containing an internal standard. The amount of the intracellular accumulated compound was measured by lysing the cells with the cold acetonitrile solution containing an internal standard. The concentration of the test compound in all samples (including the starting dosing solution, the supernatant in the donor wells, the receiving solution, and the cell lysate) was analyzed by LC/MS/MS method. The concentration of the test compound was expressed by the ratio of the peak area of the compound to the peak area of the internal standard.
The standard conditions for the transport experiment of the compound represented by formula (I) were as follows:
Test concentration: 2 (DMSO≤1%);
Direction: bidirectional transport, including A→B and B→A these two directions;
Inoculated time: single time, 2.5 hours;
Buffer for transport: HBSS, pH 7.4;
Inoculated condition: 37° C., 5% CO2, 95% relative humidity.
Data set [10] relates to Vero Cell. Nature of the data set: Vero cell cytotoxicity.
Where [11] appears, read: high temperature (60° C., open), 5th day.
[12] abbreviates: high temperature (60° C., open), 10th day.

Broadly, the solubility (kinetic) is the concentration staying in solution when a stock, usually in DMSO, is diluted into the medium. Take `C[C@]1(CN2Cc3nc(-c4ccc(F)cc4)sc3C2)Cn2cc([N+](=O)[O-])nc2O1.O=S(=O)(O)c1ccccc1`: the kinetic solubility at 24 h in data set [1] was 32.2 µM. Also, the “Appearance (2 days)” value in [2] (acetonitrile-water (1:1)), in data set [2] (acetonitrile), in data set [2] (ethanol-water (1:1)), in [2] (ethanol), in data set [2] (ethyl acetate) and in [2] (isopropanol-water (1:1)) was “suspension” throughout. Moreover, in data set [2] (isopropanol), the “Appearance (2 days)” value was “suspension”. Further, the “Result (crystal form by XRPD)” value in data set [2] (acetonitrile-water (1:1)), in data set [2] (acetonitrile), in [2] (ethanol-water (1:1)), in data set [2] (ethanol), in data set [2] (ethyl acetate) and in data set [2] (isopropanol-water (1:1)) was “crystal form A” each time. Besides, the “Result (crystal form by XRPD)” value in data set [2] (isopropanol) is given as “crystal form A”. Further, the Appearance entry in data set [3] (0 day) is reported as “grey powder”; in data set [3] ([…], open), 5th day) it was “grey powder”; in [3] (setting [11]), “grey powder”. Moreover, the “Total impurity (%)” value in data set [3] (0 day) is given as 1.32%; in data set [3] ([…], open), 5th day), 1.32%; in data set [3] ([…], open), 10th day), 1.60%; in data set [3] (setting [11]) it was 1.49%; in [3] (setting [12]), 1.86%. Besides, the XRPD entry is listed as “crystal” in data set [3] (0 day); “crystal” in [3] ([…], open), 5th day); “crystal” in data set [3] ([…], open), 10th day); “crystal” in [3] (setting [11]); “crystal” in [3] (setting [12]).
A word on the solubility: it is how much of the substance goes into solution per volume. Consider `C[C@]1(CN2Cc3nc(-c4ccc(F)cc4)sc3C2)Cn2cc([N+](=O)[O-])nc2O1`, for which the solubility in data set [4] (aqueous with cosolvent or surfactant or cyclodextrin) and in data set [4] (water) was below 2000 µg/mL in each case.
In [5] (100 mg/kg oral), `C[C@]1(COc2ccc(N3CCC(Oc4ccc(OC(F)(F)F)cc4)CC3)cc2)Cn2cc([N+](=O)[O-])nc2O1` [OPC-67683, Delamanid, reference compound] showed a Log value reduced of 0.9 and a Number of colony of 2.3E+05.
With `CO[C@H]1/C=C/O[C@@]2(C)Oc3c(C)c(O)c4c(O)c(c(/C=N/N5CCN(C)CC5)c(O)c4c3C2=O)NC(=O)/C(C)=C\C=C\[C@H](C)[C@H](O)[C@@H](C)[C@@H](O)[C@@H](C)[C@H](OC(C)=O)[C@@H]1C` [Rifampin, reference compound], in [5] (15 mg/kg oral), the Log value reduced came to 2.2 and the Number of colony turned out to be 1.2E+04.
In data set [5] (150 mg/kg oral), `NC(=O)c1cnccn1` [pyrazinamide, reference compound] came in with a Log value reduced of 1.2 and a Number of colony of 1.2E+05.
`C[C@]1(CN2Cc3nc(-c4ccc(F)cc4)sc3C2)Cn2cc([N+](=O)[O-])nc2O1` [the compound represented by formula (I)]: the “M. bovis ATCC35737” value in [6] (MIC, BCG strain, Alamar Blue) is below 1 µg/mL. Moreover, in [6] (conclusion), the “inhibitory activity against M. bovis BCG strain (in words)” value is “good inhibitory activity”. In addition, the MIC is below 1 µg/mL in data set [7] (Mycobacterium tuberculosis, H37RV) and 1 to 32 µg/mL in data set [8]. In data set [7] (conclusion), the “inhibitory activity against M. tuberculosis H37Rv strain (in words)” value is “good inhibitory activity”. In addition, the “permeability compared to the reference compound OPC-67683 (in words)” value in data set [9] is “better permeability”. Further, the IC50 in data set [10] (Chlorocebus sabaeus, Vero, read-out: Vero Cell (IC50) (μg/mL)) was above 32 µg/mL. Besides, the “cytotoxicity (in words)” value in [10] (conclusion) is “without cytotoxicity”.
With `C[C@]1(CN2Cc3nc(-c4ccc(F)cc4)sc3C2)Cn2cc([N+](=O)[O-])nc2O1.O=S(=O)(O)c1ccccc1` [the compound represented by formula (II)], the figures for the Log value reduced in data set [5] (10 mg/kg oral), in data set [5] (30 mg/kg oral) and in data set [5] (100 mg/kg oral) were 0.9, 1.3 and 1.7, respectively. Besides, the Number of colony in [5] (10 mg/kg oral) is listed as 2.7E+05; in [5] (30 mg/kg oral) it was 1.0E+05; in data set [5] (100 mg/kg oral), 4.1E+04.
